Reference: the supplement of paper PMC10307832

Tests used:
Test in all cases: relative viability (nuclei count vs DMSO), 5 days (fraction); higher = more cells survive
[1] = compound: CC1=CC(=NN1)NC2=CC(=NC(=N2)/C=C/C3=CC=CC=C3)N4CCN(CC4)C + Cc1nc(Nc2ncc(C(=O)Nc3c(C)cccc3Cl)s2)cc(N2CCN(CCO)CC2)n1 [Dasatinib] (partner 0.075 µM)
How it was run: (§1)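 One day after seeding in 1536-well plates, lung cancer cell lines were dosed by pin tool. Dosing was either single-drug or a fixed anchor-drug dose plus five library-drug doses (not always all listed) in √10 steps. After 5 days, nuclei were stained in one fix-and-stain step and counted on 4× images, and relative viability is the nuclei count of treated wells over that of vehicle wells, given as the median of duplicate plates.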

Bortezomib + Luminespib = compound: CC(C)C[C@H](NC(=O)[C@H](Cc1ccccc1)NC(=O)c1cnccn1)B(O)O [Bortezomib] + CCNC(=O)c1noc(-c2cc(C(C)C)c(O)cc2O)c1-c1ccc(CN2CCOCC2)cc1 [Luminespib] (partner 0.01 µM)
How it was run: as §1

Bortezomib + Tozasertib = compound: CC(C)C[C@H](NC(=O)[C@H](Cc1ccccc1)NC(=O)c1cnccn1)B(O)O [Bortezomib] + Cc1cc(Nc2cc(N3CCN(C)CC3)nc(Sc3ccc(NC(=O)C4CC4)cc3)n2)n[nH]1 [Tozasertib] (partner 0.1 µM)
How it was run: as §1

Bortezomib + Palbociclib = compound: CC(C)C[C@H](NC(=O)[C@H](Cc1ccccc1)NC(=O)c1cnccn1)B(O)O [Bortezomib] + CC(=O)c1c(C)c2cnc(Nc3ccc(N4CCNCC4)cn3)nc2n(C2CCCC2)c1=O [Palbociclib] (partner 0.5 µM)
How it was run: as §1

## NCI-H650
[1]; first compound 0.253 µM
  relative viability: 0.507
[1]; first compound 0.8 µM
  relative viability: 0.517
[1]; first compound 2.53 µM
  relative viability: 0.352
[1]; first compound 8 µM
  relative viability: 0.195
Bortezomib + Luminespib; first compound 0.000632 µM
  relative viability: 0.731
Bortezomib + Luminespib; first compound 0.002 µM
  relative viability: 0.676
Bortezomib + Luminespib; first compound 0.006325 µM
  relative viability: 0.469
Bortezomib + Luminespib; first compound 0.02 µM
  relative viability: 0.155
Bortezomib + Tozasertib; first compound 0.000632 µM
  relative viability: 0.697
Bortezomib + Tozasertib; first compound 0.002 µM
  relative viability: 0.637
Bortezomib + Tozasertib; first compound 0.006325 µM
  relative viability: 0.286
Bortezomib + Tozasertib; first compound 0.02 µM
  relative viability: 0.133
Bortezomib + Palbociclib; first compound 0.0002 µM
  relative viability: 0.335
Bortezomib + Palbociclib; first compound 0.000632 µM
  relative viability: 0.27
Bortezomib + Palbociclib; first compound 0.002 µM
  relative viability: 0.31
Bortezomib + Palbociclib; first compound 0.006325 µM
  relative viability: 0.243
Bortezomib + Palbociclib; first compound 0.02 µM
  relative viability: 0.149
